According to patent publication US20130040331A1, “LABEL-FREE METHODS RELATED TO hERG POTASSIUM ION [sequence]” (CORNING INCORPORATED, priority 2009, published 2013):
“Also recorded” adds a separate entry of the source. Where two headings read alike, the source gives them in different places.

Key:
hERG channel [1] = biological target: T1, hERG channel (Homo sapiens, UniProt Q12809); assay: Rb+ flux assay using HEK-hERG cells; settings: for effect on hERG ion flux (Rb+ flux, FIG. 6): HEK-hERG cells, overall statement, KCl and concentration not specified
Protocol: Briefly, 50,000 cells per well were plated in 96-well tissue culture treated plates 20 hours before assay. In the next day, cells were incubated with complete cell culture medium containing 5 mM RbCl for 3 hours at 37° C. with 5% CO2. Then compounds (10×) diluted in HBSS were added into the cell culture medium and cells were incubated at 37° C. with 5% CO2 for another hour. Cells were washed twice with Rb^+ free cell culture medium and incubated with 180 μl/well of cell culture medium containing different concentration of KCl for exactly 10 minutes. The supernatant from each well was transferred to a new 96 well plate immediately. Cells were lysed with 180 μl/well 0.5% Triton-100 in HBSS. The Rb^+ concentration of each sample was determined by ICR8000 (Aurora Biomed Inc.).

[2] = system: hERG channel or hERG-associated signaling complex; assay: Classification of hERG modulators by label-free biosensor profiles across three cell lines plus mallotoxin modulation index; format: cell-based, human
Source text: The traditional hERG ion channel assay involves assaying ion flux such as Rb^+ flux using ion absorption assays, or assaying hERG currents directly using patch clamping methods. Traditionally, a molecule which causes increase in Rb^+ flux and/or hERG currents is referred to a hERG activator, while a molecule which inhibits Rb^+ flux and/or hERG currents is referred to a hERG inhibitor. […] These hERG activators may or may not result in detectable biosensor signals in cells, using label-free biosensor cellular assays. A hERG activator that results in a detectable biosensor signal in a hERG expressing cell via hERG or hERG signaling complex is also referred to a label-free biosensor hERG activator.
Disclosed are methods of classifying a molecule for modulating hERG activity, comprising the steps: a. incubating a molecule individually with at least three different types of cells consisting of a native cell endogenously expressing hERG, an engineered cell stably expressing hERG and its parental cell without expressing hERG, and b. monitoring the molecule induced cellular response on each cell type with a label-free biosensor cellular assay,
Also disclosed are methods, further comprising as steps c) incubating a label-free biosensor hERG activator with each cell type in the presence of the molecule, d. monitoring the label-free biosensor hERG activator induced cellular response on each cell type in the presence of the molecule, e. generating a biosensor modulation index of the molecule against the label-free biosensor hERG activator induced biosensor signals in the two hERG expressing cell types.
(§1) The DMR modulation index was generated by normalizing the mallotoxin DMR signal in either cell line in the presence of compound […] to its corresponding DMR signal in the absence of the compound, and the percentage of modulation was based on the amplitude of the mallotoxin DMR signal at a specific time (−18 min after stimulation for HEK-hERG cells, and ˜50 min after stimulation for HT29 cells, respectively). Mallotoxin is known to display polypharmacology. It is also known to be a protein kinase C (PKC) inhibitor; and PKC is a downstream signaling component of hERG activation. Thus, it would be difficult or almost impossible to assign the mode(s) of action of mallotoxin to be a hERG activator when either cell line is individually assayed with the label-free biosensor (i.e., Epic® system). […] However, combining the primary DMR profiles of a compound across the three cell lines tested with the modulation index of the compound against the mallotoxin responses in both HT29 and […] cells can correctly identify whether the compound is a hERG activator or not. The results shown in FIG. 1 indicate that indeed mallotoxin is a hERG activator; and the activation of hERG can result in detectable biosensor responses in the two hERG expressing cell lines.

[3] = system: mallotoxin DMR signal in HT29 cells; assay: DMR modulation index against the mallotoxin DMR signal in HT29 cells; format: cell-based, human
Source text: (§2) A “molecule modulation index” or like terms is an index to display the ability of the molecule to modulate the biosensor output signals of the panels of markers acting on the panel of cells. The modulation index is generated by normalizing a specific biosensor output signal parameter of a response of a cell upon stimulation with a marker in the presence of a molecule against that in the absence of any molecule.
(§3) Epic® wavelength interrogation system (Corning Inc., Corning, N.Y.) was used for whole cell sensing. This system consists of a temperature-control unit, an optical detection unit, and an on-board liquid handling unit with robotics. The detection unit is centered on integrated fiber optics, and enables kinetic measures of cellular responses with a time interval of ˜15 sec.
(§4) Cells were plated in 384-well Epic® cell culture treated plate (Corning Cat#5040) 16-20 hours before assay (15000 cells/well for HEK293 and HEK-hERG cells, 30000 cells/well for HT29 cells). For both HEK-hERG and its parental HEK293 cells, each well was coated with 10 μl 5 μg/ml fibronectin. One hour before assay, cells were washed twice on a BioTek ELx405 Select washer with Hank's Balanced Salt Solution (HBSS) containing 20 mM Hepes. Cells were incubated in 40 μl/well HBSS at 28° C. inside the Epic system for one hour. For each assay, a 2-min baseline was initiated, followed by addition of 10 μl compound solutions (5×) and the cell responses were recorded continuously for one hour.
(§5) All studies were carried out at a controlled temperature (28° C.). At least two independent sets of experiments, each with at least three replicates, were performed. […] All dose-dependent responses were analyzed using non-linear regression method with the GraphPad Prism 5.
as §1

HEK-hERG cells = assay: Label-free RWG biosensor (Epic) DMR assay, agonism mode, HEK-hERG cells stably expressing hERG; format: cell-based, human
Protocol: as §3, §4, §5
(§6) Three different types of cells: human colon cancerous cell line HT-29, HEK293 and its engineered HEK-hERG cell lines were used. HT-29 is known to endogenously express hERG channels. HEK293 is a native cell line without endogenously expressed hERG channels, while HEK-hERG is an engineered HEK293 cells having stably expressed hERG channels. Mallotoxin, a newly discovered hERG activator, was used to activate hERG channels at or near physiological conditions (i.e., 1×HBSS buffered conditions).

[4] = system: mallotoxin DMR signal in HEK-hERG cells; format: cell-based, human
Source text: as §2, §3, §4, §5, §1

HEK293 cells = assay: Label-free RWG biosensor (Epic) DMR assay, agonism mode, native HEK293 cells without hERG; format: cell-based, human
Protocol: as §3, §4
All studies were carried out at a controlled temperature (28° C.). At least two independent sets of experiments, each with at least three replicates, were performed. […] All dose-dependent responses were analyzed using non-linear regression method with the GraphPad Prism 5. […]

HT29 cells = assay: Label-free RWG biosensor (Epic) DMR assay, agonism mode, HT29 cells endogenously expressing hERG; format: cell-based, human
Protocol: as §3, §4, §5, §6

PKC = assay: Effect on PKC activity (data not shown)
phosphodiesterase 4 = assay: Effect on phosphodiesterase 4 activity (data not shown)
hERG channel [5] = biological target: T1, hERG channel; assay: Automated patch clamp recording of hERG current using IonWorks, CHO-hERG cells
Protocol: CHO—K1 cells stably expressing hERG channel (CHO-hERG) were cultured in T175 flask till about 70% confluent. Cells were washed twice with PBS, then 2.5 ml 0.25% Trypsin/EDTA was mixed with 2.5 ml PBS and added to the T175 flask. Cells were incubated about 2 minutes with the diluted Trypsin/EDTA solution at 37° C., then were continuously incubated about 3 minutes at room temperature. 20 ml fresh medium were added to suspend the cells and transfer to a 50 ml tube. Cells were centrifuged down at 750 rpm for 5 minutes. The extra medium was removed and cells were resuspended in 6 ml External Buffer (137 mM NaCl, 4 mM KCl, 1.8 mM CaCl2, 1 mM MgCl2, 10 mM HEPES, 10 mM glucose, pH 7.4). Then cells were centrifuged again at 450 rpm for another 5 minutes. Finally cells were resuspended in 4 ml the External Buffer, cell number was counted using a hemacytometer. Cell suspension was diluted to 2.5×10^6 cells/ml with the External Buffer. 4 ml of the resuspended cells were added to the cell reservoir in IonWorks. The Internal solution used contains: 40 mM KCl, 100 mM K-Gluconate, 3.2 mM MgCl2, 2 mM CaCl2, 5 mM HEPES, pH 7.25 (adjusted with KOH). 5 mg Amphotericin B from 200 ul DMSO stock was added to 65 ml the Internal solution and mixed well to achieve electrical access to the interior of cells on the patch plate.
Compounds were prepared from 10 mM DMSO stock and diluted in the External Buffer to make 3× compound solution. […] of the 3× compound solution was transferred to a 384 well plate in Row A, B, C and D. PD11857 (Sigma-Aldrich), a reported hERG channel activator was used as activator positive control (final concentration 30 and 50 μM). hERG blocker dofetilide was used as blocker positive control (final concentration 100 nM). The final DMSO concentration in the IonWorks Quattro PatchPlate PPC plate (Cat#9000-0902, Molecular Devices) was 0.5%. Final compound concentration was 50 μM. Each compound was added to four wells of one PPC plate.
hERG currents were recorded on IonWorks Quattro (Molecular Devices). To record hERG current, the cells were clamped at −80 mV initially, then followed by a 5-s depolarization at +40 mV to activate the channels. Tail currents were measured during an ensuing return to −35 mV. Data analysis were done using IonWorks Quttro® System Software version 2.0.4.4. Data from wells with seal resistance less than 50 MΩ or hERG tail currents less than 0.1 nA were filtered out. […] Inhibitor hits were selected if hERG tail currents ratio (post/pre-compound) is less than mean-2SD of the average DMSO control.
To record hERG current, the cells were clamped at −80 mV initially, then followed by a 5-s depolarization at +40 mV to activate the channels (phase a in FIG. 10A). Tail currents were measured during an ensuing return to −35 mV for 2 seconds (phase b in FIG. 10A). Final holding potential at −70 mV (phase c in FIG. 10B).

[6] = compound at 10 micromolar, mallotoxin 16 micromolar
[7] = 16 μM mallotoxin, blockers dose-dependent (30 μM, 30 min pretreatment in FIG. 8A)

T1 sequence (Q12809 whole entry): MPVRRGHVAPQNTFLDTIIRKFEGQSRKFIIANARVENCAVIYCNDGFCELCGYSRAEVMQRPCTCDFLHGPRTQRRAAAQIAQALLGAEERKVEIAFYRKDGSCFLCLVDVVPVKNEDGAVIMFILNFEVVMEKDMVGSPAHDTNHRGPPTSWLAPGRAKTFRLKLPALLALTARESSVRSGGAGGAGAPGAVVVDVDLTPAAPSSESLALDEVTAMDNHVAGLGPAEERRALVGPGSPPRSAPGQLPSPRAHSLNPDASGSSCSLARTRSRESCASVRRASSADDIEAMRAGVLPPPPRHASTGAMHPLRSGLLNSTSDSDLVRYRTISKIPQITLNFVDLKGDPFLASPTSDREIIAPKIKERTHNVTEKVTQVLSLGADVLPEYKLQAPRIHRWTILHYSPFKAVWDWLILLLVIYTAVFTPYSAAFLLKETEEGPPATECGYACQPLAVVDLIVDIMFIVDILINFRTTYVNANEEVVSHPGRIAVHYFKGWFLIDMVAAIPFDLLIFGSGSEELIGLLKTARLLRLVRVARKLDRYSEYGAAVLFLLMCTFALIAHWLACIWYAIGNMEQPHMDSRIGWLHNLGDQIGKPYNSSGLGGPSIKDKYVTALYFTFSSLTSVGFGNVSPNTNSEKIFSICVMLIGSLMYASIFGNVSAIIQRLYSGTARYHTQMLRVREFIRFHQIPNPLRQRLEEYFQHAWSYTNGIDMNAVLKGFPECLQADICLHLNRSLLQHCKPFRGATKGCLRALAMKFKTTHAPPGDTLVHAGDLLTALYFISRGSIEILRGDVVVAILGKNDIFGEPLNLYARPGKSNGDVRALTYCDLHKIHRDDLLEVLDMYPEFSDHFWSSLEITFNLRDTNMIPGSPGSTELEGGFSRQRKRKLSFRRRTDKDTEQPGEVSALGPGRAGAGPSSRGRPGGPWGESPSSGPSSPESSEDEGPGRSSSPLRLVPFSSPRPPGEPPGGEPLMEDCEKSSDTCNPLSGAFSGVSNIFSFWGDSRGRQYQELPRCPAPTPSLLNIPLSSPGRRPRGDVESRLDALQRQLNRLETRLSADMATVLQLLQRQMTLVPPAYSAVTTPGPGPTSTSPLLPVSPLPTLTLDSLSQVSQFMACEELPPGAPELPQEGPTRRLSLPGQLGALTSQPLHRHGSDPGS

N#CC(C#N)=Cc1ccc([N+](=O)[O-])c(O)c1 [AG-126]
effect on hERG ion flux (Rb+ flux, FIG. 6) (hERG channel [1]): little or no impact; also recorded: non-effector in hERG ion flux
hERG pathway activity class by label-free biosensor [2]: hERG pathway activator, specifically in the endogenous hERG channel complex in HT29
modulation of the mallotoxin DMR signal in HT29 cells [3, 6]: only partially attenuated

O=C(Nc1cc(C(F)(F)F)ccc1O)Nc1cc(C(F)(F)F)ccc1O [NS1643]
DMR signal in HEK-hERG cells (HEK-hERG cells; concentration not given, data not shown): induced a detectable DMR signal

COc1cc(N)c(Cl)cc1C(=O)NC1CCN(CCCOc2ccc(F)cc2)CC1OC (stereo not shown) [cisapride]
effect of pretreatment on the mallotoxin DMR signal in HEK-hERG cells [4]: dose-dependent suppression

O=C(O)c1cc(-c2ccc(F)cc2F)ccc1O [diflunisal]
Rb+ signal in HEK-hERG cells (hERG channel [1]; 5 mM KCl, compound at 10 or 50 μM): only at 50 μM triggered a detectable increase
effect on hERG ion flux (Rb+ flux, FIG. 6) (hERG channel [1]): weak hERG ion flux activator
hERG pathway activity class by label-free biosensor [2]: hERG pathway activator
score of modulation index in coordination, HEK-hERG coordinate ([4]; human): 1
modulation of the mallotoxin DMR signal in HT29 cells [3, 6]: completely desensitized

O=C(O)c1cccnc1Nc1cccc(C(F)(F)F)c1 [niflumic acid]
hERG pathway activity class by label-free biosensor [2]: hERG pathway activator

CC(C)(O)[C@H]1O[C@H]2CC[C@@]3(C)[C@@](O)(CC[C@H]4Cc5c([nH]c6ccccc56)[C@@]43C)C2=CC1=O [paxilline]
effect of pretreatment on the mallotoxin DMR signal in HEK-hERG cells [4, 7]: no effect

C=C(C)[C@H]1O[C@H]2CC[C@@]3(C)[C@@](O)(CC[C@H]4[C@@H]5OC(C)(C)[C@H]6C[C@@H]7C(=C)Cc8c(Cl)cc9[nH]c(c5c9c8[C@@]76O)[C@@]43C)[C@@]23O[C@H]3[C@H]1O [penitrem A]
effect of pretreatment on the mallotoxin DMR signal in HEK-hERG cells [4, 7]: no effect

O=C1NCCN1CCN1CCC(c2cn(-c3ccc(F)cc3)c3ccc(Cl)cc23)CC1 [sertindole]
DMR signal in HEK293 cells (HEK293 cells): did not trigger any DMR signals
DMR signal in HT29 cells (HT29 cells): did not trigger any DMR signals
modulation of the mallotoxin DMR signal in HT29 cells ([3]; dose dependent, concentrations not given): attenuated
DMR signal in HEK-hERG cells (HEK-hERG cells): did not trigger any DMR signals

N#CC(C#N)=C(N)/C(C#N)=C/c1cc(O)c(O)c(O)c1 [tyrphostin 51]
effect on hERG ion flux (Rb+ flux, FIG. 6) (hERG channel [1]): little impact; also recorded: weak hERG ion flux activator
effect on activity of PKC (PKC): suppresses the activity
effect on activity of phosphodiesterase 4 (phosphodiesterase 4): suppresses the activity
hERG pathway activity class by label-free biosensor [2]: hERG pathway activator
modulation of the mallotoxin DMR signal in HT29 cells [3, 6]: only partially attenuated
DMR signal in HEK-hERG cells (HEK-hERG cells; compound at 10 μM): robust but different DMR signals
effect on hERG tail current (hERG channel [5]; 50 μM, tail current at return to −35 mV): significantly suppressed
effect on hERG current (hERG channel [5]; final compound concentration 50 μM): hERG current inhibitor
